The values that follow come from paper PMC3968691 (The FEBS journal, 2013).

The experiment concerns the target Sts-1PGM (suppressor of T-cell receptor signaling-1 PGM domain) (Mus musculus, UniProt Q8BGG7, E490Q/H380C). The experiment can be described thus: biochemical.

Chain of Sts-1PGM (suppressor of T-cell receptor signaling-1 PGM domain) (Q8BGG7 369-638 H380C/E490Q): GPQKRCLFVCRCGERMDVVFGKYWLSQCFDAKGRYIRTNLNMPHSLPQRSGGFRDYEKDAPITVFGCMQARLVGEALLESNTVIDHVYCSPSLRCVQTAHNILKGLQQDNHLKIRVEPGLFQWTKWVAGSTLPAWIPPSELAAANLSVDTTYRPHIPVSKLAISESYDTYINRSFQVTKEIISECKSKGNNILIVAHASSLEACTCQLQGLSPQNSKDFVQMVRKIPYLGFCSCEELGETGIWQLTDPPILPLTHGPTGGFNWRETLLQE

As to `COc1ccc2c(c1)Oc1cc(OP(=O)(O)O)ccc1C21OC(=O)c2ccccc21` (stereo not shown) [OMFP], the Kd (commonly a measure of binding affinity in units of concentration) was 5.71 µM.
